Experiments:
Type in all cases: in vivo
[1] = test system: Tobacco Budworm [Heliothis virescens (Fabricius)] larvae; test: Tobacco budworm larvae, contact (TBW-C), 5 days; details: percent in solution, second-instar larvae
How it was run: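 Cotton cotyledons dipped 2–3 s in compound in 50-50 acetone-water, dried, then infested with 5 second-instar larvae and held 5 days at high humidity. Mortality scored; LC50 from dosage-mortality curves, expressed as percent compound in solution, concentrations from 0.1% downward.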

[2] = test system: Beet Armyworm (Spodoptera exigua); test: Beet armyworm leaf dip (BAW), 5 days; details: percent in solution; second-instar larvae; five days
How it was run: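 Sugar beet leaves dipped 2–3 s in compound diluted in 50:50 acetone-water, dried, then infested with five second-instar larvae in humid petri dishes. Mortality scored at 5 days; concentrations from 0.1% downward. LC50 from dosage-mortality curves, expressed as percent compound in solution.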

[3] = test system: Tobacco Budworm [Heliothis virescens (Fabricius)] eggs; test: Tobacco budworm eggs (TBW-E); details: percent in solution; 2-day old eggs
How it was run: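 LC50 is given as percent compound in the dipping solution, fitted from dosage-mortality curves. Two-day-old eggs on paper towel were dipped in acetone solutions (top concentration 0.1%), kept at 78° F on rearing medium, and scored after control hatch and larval feeding.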

[4] = test system: Cabbage Looper [Trichoplusia ni (Hubner)]; test: Cabbage looper leaf dip (CL), 3-5 days; details: percent in solution, second-instar larvae
How it was run: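 LC50, as percent test compound in solution, derived from dosage-mortality curves; concentrations started at 0.1% and went lower. Five second-instar larvae per dish fed on acetone-water-dipped, dried squash cotyledons in a humid chamber. Deaths recorded 3-5 days post-infestation.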

[5] = test system: Maize weevil [Sitophilus zeamais (Motschulsky)]; test: Maize weevil on dipped corn seeds (MW), 48 hours; details: percent in solution, adult weevils
How it was run: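 LC50, given as percent of compound in dipping solution, comes from dosage-mortality curves over concentrations descending from 0.01%. Four corn seeds soaked 2-3 s in 50:50 acetone:water solution were dried and held with 10 adult weevils, about 25° C, mortality read after 48 h.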

[6] = test system: Aster Leafhopper [Macrosteles fascifrens (Stal)]; test: Aster leafhopper on dipped oat seedlings (LH), 48 hours; details: percent in solution, adults/nymphs
How it was run: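 Three ~10 cm oat seedlings per cup were dipped 2-3 seconds in 50-50 acetone-water compound solutions, dried, and caged with ten adult/nymph leafhoppers. Mortality was counted after 48 hours at concentrations from 0.05% downward. LC50, as percent compound in solution, came from dosage-mortality curves.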

[7] = test system: Black Bean Aphid [Aphis fabae (Scop.)]; test: Black bean aphid spray test on nasturtium (BBA), 48 hours; details: percent of test compound in sprayed solution
How it was run: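 LC50, given as percent test compound in the sprayed liquid, was calculated from dosage-mortality curves using concentrations from 0.05% downward. Sprays in 50:50 acetone-water went to runoff on ~5 cm nasturtiums carrying 25-50 aphids of mixed ages, one day after infestation. Deaths were counted 48 h later under greenhouse conditions.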

[8] = test system: Housefly [Musca domestica]; test: Housefly contact mortality in dishes (HF), 48 hours; details: μg of test compound per 25 female flies
How it was run: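 Residual contact test: acetone dilution, 0.01% peanut oil spreader, solvent evaporated; 25 ♀ flies (1-2 d old) per cage; sugar-water plug; 48 h mortality read. LC50 in μg/25 female flies, from dose-mortality curves; top dose 100 μg/25 flies.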

[9] = test system: Rice water weevil [Lissorhoptrus oryzophilus (Kuschel)]; test: Rice water weevil topical (RWW), 48 hours; details: μg of test compound per weevil, female adults
How it was run: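 Female adult weevils (ten per dose) received 1 µl acetone droplets on the ventral abdomen and were held at about 25 °C with wet cotton and rice foliage. Mortality read at 48 h; LC50 from dose-mortality curves, given as µg compound per weevil, top dose 2.5 µg per weevil.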

[10] = test system: two-spotted mite [Tetranychus urticae (Koch)]; test: Two-spotted mite activity; details: initial testing level 0.05% in solution
Procedure: The compounds in Tables 1 and 2 were also tested for activity against the two-spotted mite [Tetranychus urticae (Koch)] and Western spotted cucumber beetle larvae [Diabrotica undecimpunctata undecimpunctata (Mannerheim)]. Initial testing levels were 0.05% (in solution) against the mite, and 25 ppm (in soil) against the beetle.

Row | Compound | LC50 TBW C (contact) [1] | LC50 BAW [2] | LC50 TBW E (eggs) [3] | LC50 CL [4] | LC50 MW [5] | LC50 LH [6] | LC50 BBA [7] | LC50 HF [8] | LC50 RWW [9] | activity in tests against twospotted mite [10]
1 | CC(C)C(=Nc1ccc(F)c(Cl)c1)OCc1ccc(F)c(Oc2ccc(Cl)cc2)c1 [Compound 267] | 0.0003% | 0.0012% | 0.015% | 0.00008% | 0.0027% | 0.002% | 0.0003% | 8.4 µg | 0.11 µg | 
2 | CC(C)C(=Nc1ccc(Cl)cc1)OCc1cccc(Oc2ccc(Cl)cc2)c1 [Compound 269] | 0.001% | 0.0024% | 0.04% | 0.0003% | > 0.01% | 0.003% | > 0.05% | 25 µg | > 2.5 µg | 
3 | CC(C)C(=Nc1ccc(F)c(Br)c1)OCc1ccc(F)c(Oc2ccc(F)cc2)c1 [Compound 273] | 0.00025% | 0.0017% | 0.015% | 0.000018% | 0.004% | 0.0003% | 0.0003% | 7 µg | > 2.5 µg | 
4 | CC(C)C(=Nc1ccc(F)c(C(F)(F)F)c1)OCc1ccc(F)c(Oc2ccc(F)cc2)c1 [Compound 277] | 0.0005% | 0.005% | 0.013% | 0.00001% | > 0.01% | 0.0003% | 0.0008% | 4 µg | 0.065 µg | 
5 | CC(C)C(=Nc1ccc(F)c(F)c1)OCc1ccc(F)c(Oc2ccc(F)cc2)c1 [Compound 278] | 0.00026% | 0.0012% | 0.008% | 0.00002% | 0.0063% | 0.0003% | 0.0005% | 3 µg | 0.085 µg | 
6 | CC(C)C(=Nc1ccc(OC(F)(F)F)cc1)OCc1ccc(F)c(Oc2ccc(F)cc2)c1 [Compound 286] | 0.00017% | 0.0004% | 0.005% | 0.000024% | 0.0039% | 0.0006% | 0.0003% | 34 µg | 0.09 µg | 
7 | CC(C)C(=Nc1ccc(OC(F)(F)F)cc1)OCc1ccc(F)c(Oc2ccc(Cl)cc2)c1 [Compound 323] | 0.00065% | 0.0025% | 0.045% | 0.0006% | 0.0075% | 0.05% | > 0.05% | > 100 µg | 0.16 µg | 
8 | CC(C)C(=Nc1ccc(F)c(Cl)c1F)OCc1cccc(Oc2ccc(F)cc2)c1 [Compound 352] | 0.0004% | > 0.1% | > 0.1% | 0.000065% | 0.0075% | 0.0004% | 0.0003% | 4.6 µg | > 2.5 µg | 
9 | CC(C)C(=Nc1ccc(OC(F)(F)C(F)Cl)cc1)OCc1cccc(Oc2ccccc2)c1 (stereo not drawn) [Compound 418] |  |  | > 0.1% | > 0.1% | > 0.01% |  | > 0.05% | > 100 µg |  | demonstrated activity
10 | CC(C)C(=Nc1ccc(OC(F)(F)C(F)Cl)cc1)OCc1ccc(F)c(Oc2ccccc2)c1 (stereo not drawn) [Compound 419] |  |  | > 0.1% | > 0.1% | > 0.01% |  | > 0.05% | > 100 µg |  | demonstrated activity
